Values after ≈ are worked out from the molar mass of the structure shown.

The source of these data is US20060258729A1, “Antibacterial pyrazole carboxylic acid hydrazides” (priority 2002, published 2006).

For one experiment, the target named is T1, B. subtilis pol IIIE (Bacillus subtilis, UniProt O34623).
T1 construct: made in house
Description: DNA polymerase assay, B. subtilis pol IIIE. Type of experiment: biochemical.

Another experiment has as its target T2, E. coli pol IIIE (Escherichia coli, UniProt P10443).
T2 construct: purchased Enzyco, Denver, Colo
Briefly: DNA polymerase assay, E. coli pol IIIE. Format: biochemical. As to conditions: 80 μg/mL (190-260 μM) final concentration; all four dNTPs. In short, it runs like this:
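Incorporation of 3H label into activated calf thymus DNA (0.4 mg/mL) from 10 μM of all four dNTPs, 10 min at 30 °C in pH 7.5 Tris/magnesium acetate, compounds in 1% DMSO. Reactions started with 0.025–0.06 units recombinant polymerase, stopped with cold TCA; IC50 and percent inhibition relative to DMSO control.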

The subject of the next experiment is S. aureus Smith strain. Briefly: Inhibition of bacterial growth (MIC), Sm. As to conditions: Staphylococcus aureus, 16 to 18 hours, 37° C., read-out: Minimum Inhibitory Concentration for Bacterial Growth, Sm. Type of experiment: cell-based, Staphylococcus aureus. In short, it runs like this:
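Compounds are diluted two-fold in DMSO over 11 concentrations, commonly 80 down to 0.078 μg/mL, then combined with bacteria at 1×10^5 CFU/mL in LB or BHI (final DMSO 1%).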

T1 sequence (O34623 whole entry): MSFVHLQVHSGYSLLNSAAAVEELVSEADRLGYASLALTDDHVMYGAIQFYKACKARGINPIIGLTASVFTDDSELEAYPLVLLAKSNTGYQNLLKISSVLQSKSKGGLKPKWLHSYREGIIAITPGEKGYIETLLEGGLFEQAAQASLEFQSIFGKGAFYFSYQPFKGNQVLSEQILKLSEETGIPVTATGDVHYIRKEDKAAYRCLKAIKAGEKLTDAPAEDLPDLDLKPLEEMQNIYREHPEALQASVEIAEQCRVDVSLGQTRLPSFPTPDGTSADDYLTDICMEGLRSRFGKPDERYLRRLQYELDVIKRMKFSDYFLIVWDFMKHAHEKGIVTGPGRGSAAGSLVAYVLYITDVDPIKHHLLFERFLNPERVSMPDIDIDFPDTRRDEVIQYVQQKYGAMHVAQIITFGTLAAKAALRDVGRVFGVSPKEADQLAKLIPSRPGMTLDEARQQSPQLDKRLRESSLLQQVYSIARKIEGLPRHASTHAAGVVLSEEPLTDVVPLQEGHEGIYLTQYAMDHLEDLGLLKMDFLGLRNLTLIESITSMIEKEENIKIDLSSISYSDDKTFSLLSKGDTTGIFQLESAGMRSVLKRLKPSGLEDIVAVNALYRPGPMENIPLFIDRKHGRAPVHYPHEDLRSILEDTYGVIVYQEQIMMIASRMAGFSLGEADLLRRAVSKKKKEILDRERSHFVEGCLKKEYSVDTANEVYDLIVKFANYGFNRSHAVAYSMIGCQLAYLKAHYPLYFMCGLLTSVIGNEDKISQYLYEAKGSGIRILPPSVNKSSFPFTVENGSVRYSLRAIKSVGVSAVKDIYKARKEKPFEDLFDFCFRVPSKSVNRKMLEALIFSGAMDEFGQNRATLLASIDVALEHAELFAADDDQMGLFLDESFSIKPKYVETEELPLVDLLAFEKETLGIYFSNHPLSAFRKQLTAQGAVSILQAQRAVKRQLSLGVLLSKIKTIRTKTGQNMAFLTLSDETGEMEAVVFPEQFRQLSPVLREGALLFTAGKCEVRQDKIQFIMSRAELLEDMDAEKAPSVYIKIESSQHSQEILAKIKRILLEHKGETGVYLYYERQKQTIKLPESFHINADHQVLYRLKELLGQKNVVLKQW
T2 sequence (P10443 whole entry): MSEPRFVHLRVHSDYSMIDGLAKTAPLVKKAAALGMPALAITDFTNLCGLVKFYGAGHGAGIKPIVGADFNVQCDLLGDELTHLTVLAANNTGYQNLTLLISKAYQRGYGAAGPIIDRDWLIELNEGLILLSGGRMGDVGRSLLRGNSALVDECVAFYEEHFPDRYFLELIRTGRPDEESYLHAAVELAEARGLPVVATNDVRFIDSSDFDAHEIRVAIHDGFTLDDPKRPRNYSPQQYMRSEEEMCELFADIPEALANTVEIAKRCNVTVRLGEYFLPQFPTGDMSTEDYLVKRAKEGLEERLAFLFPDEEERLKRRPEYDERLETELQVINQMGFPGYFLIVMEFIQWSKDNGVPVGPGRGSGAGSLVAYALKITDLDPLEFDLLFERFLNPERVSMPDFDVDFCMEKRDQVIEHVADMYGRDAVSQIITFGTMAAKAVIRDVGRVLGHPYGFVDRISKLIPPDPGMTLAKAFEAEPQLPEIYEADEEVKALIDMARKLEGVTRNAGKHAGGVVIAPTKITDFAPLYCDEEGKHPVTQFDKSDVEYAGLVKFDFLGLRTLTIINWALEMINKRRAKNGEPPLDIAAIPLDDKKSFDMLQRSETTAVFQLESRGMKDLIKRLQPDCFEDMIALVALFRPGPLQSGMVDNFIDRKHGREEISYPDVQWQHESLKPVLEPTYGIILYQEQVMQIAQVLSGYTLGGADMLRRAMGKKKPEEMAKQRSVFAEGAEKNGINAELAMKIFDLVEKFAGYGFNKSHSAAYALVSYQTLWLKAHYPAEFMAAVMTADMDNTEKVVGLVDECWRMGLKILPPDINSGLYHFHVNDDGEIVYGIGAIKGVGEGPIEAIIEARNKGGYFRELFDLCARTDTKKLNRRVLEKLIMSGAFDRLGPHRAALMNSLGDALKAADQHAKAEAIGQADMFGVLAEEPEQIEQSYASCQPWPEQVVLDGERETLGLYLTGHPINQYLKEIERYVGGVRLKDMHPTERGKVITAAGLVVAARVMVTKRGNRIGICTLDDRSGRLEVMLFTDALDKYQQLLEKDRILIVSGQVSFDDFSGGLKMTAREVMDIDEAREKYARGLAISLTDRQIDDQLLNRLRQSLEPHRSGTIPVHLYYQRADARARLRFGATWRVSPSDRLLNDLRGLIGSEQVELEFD

Turning to `COc1ccc(-c2cc(C(=O)NN=Cc3cc(OC)c(OC)c(OC)c3)[nH]n2)cc1` [Compound 17], at B. subtilis pol IIIE (80 μg/mL (190-260 μM) final concentration, all four dNTPs, read-out: Percent Enzymatic Inhibition B. subtilis pol IIIE), the inhibition at 80 µg/mL is more than 20%. The IC50 on B. subtilis pol IIIE (B. subtilis Pol IIIE IC50, 4 dNTPs, in the presence of all four dNTP substrates) is more than 780 µM. Also, on E. coli pol IIIE, the “Percent Enzymatic Inhibition E. coli pol IIIE” value was “Inactive”. In the experiment on S. aureus Smith strain, the MIC was 2.5 µg/mL (≈ 6.09 µM).

The inhibition is how much of the control response was suppressed. A word on the IC50: it is the midpoint of a concentration-inhibition curve.
